Measured values from patent US20150237857A1, “ANTIBACTERIAL INHIBITORS” (MCMASTER UNIVERSITY, priority 2012, published 2015).
Converted amounts (≈) assume the structure as drawn. Where two headings read alike, the source gives them in different places.

Columns and labels:
[1] = target: recombinant E. coli BioA (Escherichia coli, UniProt P12995); experiment: BioA inhibition through a feeding assay of a bioA auxotroph; format: biochemical; conditions: relative to DMSO control
Method: To determine if the step catalyzed by BioA was the target of this inhibitor, the inhibitory activity of MAC-0013772 against recombinant E. coli BioA was assayed through a feeding assay of a bioA auxotroph.

[2] = system: E. coli MG1655; experiment: Minimum inhibitory concentration (MIC) determination; conditions: for MIC: Escherichia coli
Method: The MIC values were determined in liquid minimal media and minimal media supplemented with amino acids, vitamins and nucleobases.
A single colony of E. coli MG1655 was grown overnight in 5 ml of M9 minimal media. The saturated culture was diluted 1/50 in fresh minimal media and allowed to grow until the OD600 reached ˜0.4. […] After mixing of the bacterial culture with the compounds, the OD600 of the plates was read using Envision to account for background absorbance. The plates were then incubated in a 37° C. stationary incubator for 16 hours before measuring their OD600. After subtracting any background absorbance contributed by colored or precipitated compounds, the MIC was defined as the lowest concentration of antibiotic that inhibits visible growth.

[3] = system: Mycobacteria smegmatis; experiment: MIC against Mycobacteria smegmatis in absence and presence of biotin; format: cell-based
[4] = system: E. coli MG1655; experiment: Metabolic suppression profiling (ChemArray); format: cell-based; conditions: for metabolic suppression profile: metabolites that suppress growth inhibitory activity: ChemArray
[5] = MG1655, 16 h, read-out: MIC +bio, presence of 2 nM of biotin
[6] = MG1655, read-out: MIC −bio, absence of biotin
[7] = absence of biotin, read-out: MIC −bio
[8] = presence of 2 nM of biotin, read-out: MIC +bio

Chain of recombinant E. coli BioA (P12995 whole entry): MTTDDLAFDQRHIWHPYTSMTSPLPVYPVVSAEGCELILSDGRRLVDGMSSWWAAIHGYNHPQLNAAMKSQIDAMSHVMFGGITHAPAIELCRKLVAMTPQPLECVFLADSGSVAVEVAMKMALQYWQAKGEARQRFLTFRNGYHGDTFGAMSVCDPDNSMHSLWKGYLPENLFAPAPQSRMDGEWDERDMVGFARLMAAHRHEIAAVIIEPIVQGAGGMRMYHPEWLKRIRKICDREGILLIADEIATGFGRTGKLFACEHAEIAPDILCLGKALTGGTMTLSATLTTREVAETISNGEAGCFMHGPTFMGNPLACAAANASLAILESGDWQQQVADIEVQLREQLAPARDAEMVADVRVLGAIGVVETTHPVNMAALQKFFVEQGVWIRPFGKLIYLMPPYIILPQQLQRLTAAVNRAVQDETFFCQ

Row | Structure (SMILES) | inhibition at 1 µM [1] [%] | inhibition at 10 µM [1] [%] | MIC [2, 5] [µg/mL] | MIC [2, 6] [µg/mL] | MIC [3, 7] [µg/mL] | MIC [3, 8] [µg/mL] | further results
1 | NNC(=O)CSc1cccc([N+](=O)[O-])c1 [Compound 1a, 2-(3-nitrophenylthio)acetohydrazide] | 42 | 84 | > 256 | 256 (≈ 1130 µM) | 16 | > 256 | –
2 | NNC(=O)CSc1ccc([N+](=O)[O-])cc1 [Compound 1b, 2-(4-nitrophenylthio)acetohydrazide] | 66 | 100 | – | – | 4 | > 256 | antibacterial potency against M. smegmatis compared with MAC-0013772 (in words) [3]: potencies similar to that of MAC-0013772
3 | NNC(=O)CSc1ccccc1 [Compound 1c, 2-(phenylthio)acetohydrazide] | 49 | 100 | > 256 | 64 (≈ 351 µM) | 4 | > 256 | antibacterial potency against M. smegmatis compared with MAC-0013772 (in words) [3]: potencies similar to that of MAC-0013772
4 | NNC(=O)CSc1ccccc1F [Compound 1d, 2-(2-fluorophenylthio)acetohydrazide] | 36 | 100 | > 256 | 32 (≈ 160 µM) | 4 | > 256 | antibacterial potency against M. smegmatis compared with MAC-0013772 (in words) [3]: potencies similar to that of MAC-0013772
5 | NNC(=O)CSc1ccccc1Cl [Compound 1e, 2-(2-chlorophenylthio) acetohydrazide] | 63 | 100 | > 256 | 16 (≈ 73.8 µM) | 4 | > 256 | antibacterial activity against E. coli (in words) [2]: does not gravely alter antibacterial activity; antibacterial potency against M. smegmatis compared with MAC-0013772 (in words) [3]: potencies similar to that of MAC-0013772
6 | NNC(=O)CSc1ccccc1O [Compound 1f, 2-(2-hydroxyphenylthio)acetohydrazide] | 32 | 70 | 256 | 256 (≈ 1290 µM) | 32 | 256 | –
7 | NNC(=O)CSc1ccccc1N [Compound 1g, 2-(2-aminophenylthio)acetohydrazide] | 58 | 100 | > 256 | 256 (≈ 1300 µM) | 32 | 256 | –
8 | Cc1ccccc1SCC(=O)NN [Compound 1h, 2-(o-tolylthio)acetohydrazide] | 81 | 100 | > 256 | 16 (≈ 81.5 µM) | 4 | > 256 | antibacterial activity against E. coli (in words) [2]: does not gravely alter antibacterial activity; antibacterial potency against M. smegmatis compared with MAC-0013772 (in words) [3]: potencies similar to that of MAC-0013772
9 | COc1ccccc1SCC(=O)NN [Compound 1i, 2-(2-methoxyphenylthio)acetohydrazide] | 65 | 100 | > 256 | 128 (≈ 603 µM) | 16 | > 256 | –
10 | CC(=O)NNC(=O)CSc1ccc([N+](=O)[O-])cc1 [Compound 1j] | 0 | 0 | > 256 | > 256 | > 256 | > 256 | –
11 | CCC(=O)CSc1ccccc1[N+](=O)[O-] [Compound 1k] | 0 | 0 | > 256 | > 256 | > 256 | > 256 | –
12 | NC(=O)CSc1ccccc1[N+](=O)[O-] [Compound 1l] | 0 | 0 | > 256 | > 256 | 128 | > 256 | –
13 | CC(=O)CSc1ccccc1[N+](=O)[O-] [Compound 1m] | 0 | 0 | > 256 | > 256 | 256 | 256 | –
14 | O=C(O)CSc1ccccc1[N+](=O)[O-] [Compound 1n] | 0 | 0 | > 256 | > 256 | > 256 | > 256 | –
15 | CSCC(=O)NN [Compound 2a] | 50 | 64 | 64 | 64 (≈ 533 µM) | 32 | 32 | suppression of growth inhibition in the presence of biotin (in words) ([2]; presence of biotin): not suppressed
16 | NNC(=O)CS [Compound 2b] | 20 | 34 | 256 | 256 (≈ 2410 µM) | 32 | 32 | –
17 | CCCC(=O)NN [Compound 2c] | 1 | 40 | – | – | – | – | MIC ([2]; MG1655, read-out: MIC −bio): > 256 µg/mL; MIC ([3]; read-out: MIC +bio): 64 µg/mL; MIC ([3]; read-out: MIC −bio): 64 µg/mL
18 | CCC(=O)NN [Compound 2d] | 0 | 8 | > 256 | > 256 | 64 | 64 | –
19 | NNC(=O)C1Cc2ccccc2S1 (centres unmarked) [Compound 2f, 2,3-dihydrobenzo[b]thiophene-2-carbohydrazide] | 15 | 69 | > 256 | > 256 | 64 | > 256 | –
20 | NNC(=O)CSCc1ccccc1 [Compound 2g, 2-(benzylthio)acetohydrazide] | 60 | 100 | > 256 | 64 (≈ 326 µM) | 8 | > 256 | antibacterial potency against M. smegmatis compared with MAC-0013772 (in words) [3]: potencies similar to that of MAC-0013772
21 | NNC(=O)CSc1ccc2ccccc2c1 [Compound 2h, 2-(naphthalen-2-ylthio)acetohydrazide] | 71 | 100 | > 256 | > 256 | 32 | > 256 | –
22 | NNC(=O)CSc1ccncc1 [Compound 2i, 2-(pyridin-4-ylthio)acetohydrazide] | 32 | 77 | > 256 | 64 (≈ 349 µM) | 8 | 128 | antibacterial potency against M. smegmatis compared with MAC-0013772 (in words) [3]: potencies similar to that of MAC-0013772
23 | NNC(=O)Cc1ccccc1[N+](=O)[O-] [Compound 2j] | 0 | 29 | > 256 | > 256 | 256 | > 256 | –
24 | N[C@@H]1CONC1=O [D-cycloserine, reference compound] | – | – | – | – | – | – | metabolic suppression profile: metabolites that suppress growth inhibitory activity ([4]; 4× MIC in M9 minimal media): suppressed by the addition of either D/L-alanine or glycine; suppression of growth inhibitory activity by glycine ([4]; 4× MIC in M9 minimal media): strongly suppressed
25 | CN(C)CCC(=O)c1ccc2c(c1)OCCO2 [MAC-0161738, 1-(2,3-dihydrobenzo[b][1,4]dioxin-6-yl)-3-(dimethylamino)propan-1-one] | – | – | – | – | – | – | suppression of growth inhibitory activity by glycine ([4]; 4× MIC in M9 minimal media): strongly suppressed
26 | O=C(CCN1CCCCC1)c1ccc2c(c1)OCCCO2 [MAC-0162065, 1-(3,4-dihydro-2H-benzo[b][1,4]dioxepin-7-yl)-3-(piperidin-1-yl)propan-1-one] | – | – | – | – | – | – | suppression of growth inhibitory activity by glycine ([4]; 4× MIC in M9 minimal media): strongly suppressed
27 | COc1cc(Cc2cnc(N)nc2N)cc(OC)c1OC [Trimethoprim, reference compound] | – | – | – | – | – | – | metabolic suppression profile: metabolites that suppress growth inhibitory activity ([4]; 4× MIC in M9 minimal media): only be suppressed by providing a mixture of all supplements or at least a mixture of amino acids and nucleobases
28 | O=C(O)CNCP(=O)(O)O [glyphosate, reference compound] | – | – | – | – | – | – | metabolic suppression profile: metabolites that suppress growth inhibitory activity ([4]; 4× MIC in M9 minimal media): could only be achieved by providing a mixture of amino acids; suppression of growth inhibitory activity by pools containing the aromatic amino acids ([4]; expanded ChemArray): fully reversed
29 | CCn1cc(C(=O)O)c(=O)c2cc(F)c(N3CCNCC3)cc21 [norfloxacin, reference compound] | – | – | – | – | – | – | metabolic suppression profile: metabolites that suppress growth inhibitory activity ([4]; 4× MIC in M9 minimal media): not altered in the presence of supplements
30 | Cc1cc(NS(=O)(=O)c2ccc(N)cc2)no1 [sulfamethoxazole, reference compound] | – | – | – | – | – | – | suppression of growth inhibitory activity by p-aminobenzoic acid (PABA) ([4]; 4× MIC in M9 minimal media, PABA in growth media): fully reversed; suppression of growth inhibitory activity by methionine ([4]; 4× MIC in M9 minimal media, methionine in growth media): to a certain extent
